According to patent EP0335369A2, “New anthracycline derivatives and processes for the preparation of the same” (priority 1988, dated 1989):
Converted amounts (≈) assume the structure as drawn. Like-named read-outs stand apart in the source and are kept apart here.

Experiments:
Leukemia L-1210 cells [1] = experiment: Test 1: antitumor activity against leukemia induced in CDF1 mice by Leukemia L-1210 cells (life-span increase); format: in vivo; details: intraperitoneally once per day for 9 consecutive days, observation 60 days
Method: Antitumor activities against leukemia in CDF, mice as induced by mouse leukemia, Leukemia L-1210 cells
After an elapsed time of 24 hours, a compounds of the formula (I) of this invention to be tested was administered intraperitoneally for 9 consecutive days once per day. Observation was made for 60 days, where survival days of each mouse tested were recorded. In comparison with the control test wherein mice were treated with the administration of physiological saline alone, the increase (%) in the life-span of the treated mice was calculated as T/C %, where T is the mean survival days of the treated animals and C is the mean survival days of the untreated control animals. For the comparison, daunomycin and adriamycin were also tested in the same manner.

Leukemia L-1210 cells [2] = experiment: Test 3: antitumor activity against leukemia induced in CDF1 mice by Leukemia L-1210 cells (procedure of Test 1 repeated); format: in vivo; details: for % Increase in life-span (T/C, %): intraperitoneally once per day for 9 consecutive days, observation 60 days
Method: Antitumor activities against leukemia in CDF1 mice as induced by mouse leukemia, Leukemia L-1210 cells
To evaluate the antitumor effects of the compounds of the formula (I') according to the sixth aspect of this invention against experimental tumors in animals, the procedure of Test 1 given hereinbefore is repeated. Thus, CDF1 mice were intraperitoneally transplanted with cells of Leukemia L-1210 (at a dose of 1 x 10^5 cells/mouse). After an elapsed time of 24 hours from the tumor transplantation, a test compound of the formula (I') of the sixth aspect invention to be evaluated was administered intraperitoneally for 9 consecutive days once per day. Observation was made for 60 day, where survival days of each mouse tested were recorded. In comparison with the control test wherein mice were treated with the administration of physiological saline alone, the increase (%) in the life-span of the treated mice was calculated as T/C %, where T is the mean survival days of the treated animals and C is the mean survival days of the untreated control animals. For the comparison, daunomycin and adriamycin were also tested in the same manner.

[3] = Solubility in phosphate buffer solution of pH 7.4 at room temperature; format: physicochemical; details: for solubility: aqueous buffer, room temperature, read-out: Solubility; for solubility in the phosphate buffer solution (in words): phosphate buffer solution (0.05 M KH2PO4-NaOH) at pH 7.4
[4] = compounds (I'-c) or (I'-d), phosphate buffer solution of pH 7.4 (0.05M KH2PO4-NaOH)
[5] = compounds (Ic), phosphate buffer solution of pH 7.4 (0.05 M KH2PO4-NaOH)

Compound	% Increase in life-span (T/C, %) (Leukemia L-1210 cells [1]; Dose 0.15 mg/kg/day) [%]	% Increase in life-span (T/C, %) (Leukemia L-1210 cells [1]; Dose 0.3 mg/kg/day) [%]	% Increase in life-span (T/C, %) (Leukemia L-1210 cells [1]; Dose 0.6 mg/kg/day) [%]	% Increase in life-span (T/C, %) (Leukemia L-1210 cells [1]; Dose 1.25 mg/kg/day) [%]	% Increase in life-span (T/C, %) (Leukemia L-1210 cells [1]; Dose 2.5 mg/kg/day) [%]	% Increase in life-span (T/C, %) (Leukemia L-1210 cells [1]; Dose 5 mg/kg/day) [%]	% Increase in life-span (T/C, %) (Leukemia L-1210 cells [2]; Dose 0.3 mg/kg/day) [%]	% Increase in life-span (T/C, %) (Leukemia L-1210 cells [2]; Dose 0.6 mg/kg/day) [%]	% Increase in life-span (T/C, %) (Leukemia L-1210 cells [2]; Dose 1.25 mg/kg/day) [%]	% Increase in life-span (T/C, %) (Leukemia L-1210 cells [2]; Dose 2.5 mg/kg/day) [%]	% Increase in life-span (T/C, %) (Leukemia L-1210 cells [2]; Dose 5 mg/kg/day) [%]	also measured
COc1cccc2c1C(=O)c1c(O)c3c(c(O)c1C2=O)C[C@@](O)(C(C)=O)C[C@@H]3O[C@@H]1O[C@@H](C)[C@@H](O)[C@@H](O)[C@H]1F [7-0-(2,6-Dideoxy-2-fluoro-α-L-talopyranosyl) daunomycinone, reference compound]	105	105	118	171	217	184	105	118	171	217	184	% Increase in life-span (T/C, %) (Leukemia L-1210 cells [2]; Dose 0.15 mg/kg/day): 105%
CC(=O)[C@]1(O)Cc2c(O)c3c(c(O)c2[C@@H](O[C@@H]2O[C@@H](C)[C@@H](O)[C@@H](O)[C@H]2F)C1)C(=O)c1ccccc1C3=O [Example 12, 4-demethoxy-7-O-(2,6-dideoxy-2-fluoro-α-L-talopyranosyl)daunomycinone]							138	202	> 436	101	80	% Increase in life-span (T/C, %) (Leukemia L-1210 cells [2]; Dose 0.15 mg/kg/day): 106%
C[C@@H]1O[C@@H](O[C@H]2C[C@](O)(C(=O)CO)Cc3c(O)c4c(c(O)c32)C(=O)c2ccccc2C4=O)[C@H](F)[C@H](O)[C@H]1O [Example 4, 7-O-(2,6-dideoxy-2-fluoro-a-L-mannopyranosyl)-4-demethoxyadriamycinone]	>534	>686	>686	141	53	22						
COc1cccc2c1C(=O)c1c(O)c3c(c(O)c1C2=O)C[C@@](O)(C(=O)CO)C[C@@H]3O[C@H]1C[C@H](N)[C@H](O)[C@H](C)O1 [Adriamycin, reference compound]	123	136	142	222	228	191	136	142	222	228	191	% Increase in life-span (T/C, %) (Leukemia L-1210 cells [2]; Dose 0.15 mg/kg/day): 123%
C[C@@H]1O[C@@H](O[C@H]2C[C@](O)(C(=O)COC(=O)CCCCCC(=O)O)Cc3c(O)c4c(c(O)c32)C(=O)c2ccccc2C4=O)[C@H](F)[C@H](O)[C@@H]1O [Example 18, 4-demethoxy-7-O-(2,6-dideoxy-2-fluoro-a-L-talopyranosyl)adriamycinone 14-0-hemipimelate]												solubility [3, 4]: < 1 mg/mL; solubility in the phosphate buffer solution (in words) [3]: scarcely soluble
CCCCC(=O)OCC(=O)[C@]1(O)Cc2c(O)c3c(c(O)c2[C@@H](O[C@@H]2O[C@@H](C)[C@@H](O)[C@@H](O)[C@H]2F)C1)C(=O)c1ccccc1C3=O [Example 14, 4-demothoxy-7-O-(2,6-dideoxy-2-fluoro-α-L-talopyranosyl)adriamycinone 14-0-valerate]												solubility [3, 4]: < 1 mg/mL
COc1cccc2c1C(=O)c1c(O)c3c(c(O)c1C2=O)C[C@@](O)(C(=O)COC(=O)CCC(=O)O)C[C@@H]3O[C@@H]1O[C@@H](C)[C@H](O)[C@@H](O)[C@H]1F [Example 6, 7-O-(2,6-dideoxy-2-fluoro-α-L-mannopyranosyl)adriamycinone 14-0-hemisuccinate]												solubility [3, 5]: 25 mg/mL (≈ 37.7 mM)
COc1cccc2c1C(=O)c1c(O)c3c(c(O)c1C2=O)C[C@@](O)(C(=O)COC(=O)CCCCCCC(=O)O)C[C@@H]3O[C@@H]1O[C@@H](C)[C@H](O)[C@@H](O)[C@H]1F [Example 10, 7-O-(2,6-dideoxy-2-fluoro-α-L-mannopyranosyl)adriamycinone 14-0-hemisuberate]												solubility [3, 5]: 30 mg/mL (≈ 41.7 mM)
COc1cccc2c1C(=O)c1c(O)c3c(c(O)c1C2=O)C[C@@](O)(C(C)=O)C[C@@H]3O[C@@H]1O[C@@H](C)[C@H](O)[C@@H](O)[C@H]1F [Example 1, 7-0-(2,6-dideoxy-2-fluoro-a-L-mannopyranosyl)daunomycinone]	109	123	189	>309	280	160						
COc1cccc2c1C(=O)c1c(O)c3c(c(O)c1C2=O)C[C@@](O)(C(=O)COC(=O)CCCCC(=O)O)C[C@@H]3O[C@@H]1O[C@@H](C)[C@H](O)[C@@H](O)[C@H]1F [Example 8, 7-0-(2,6-dideoxy-2-fluoro-a-L-mannopyranosyl)adriamycinone 14-0-hemiadipate]												solubility [3, 5]: 32 mg/mL (≈ 46.3 mM)
C[C@@H]1O[C@@H](O[C@H]2C[C@](O)(C(=O)CO)Cc3c(O)c4c(c(O)c32)C(=O)c2ccccc2C4=O)[C@H](F)[C@H](O)[C@@H]1O [Example 13, 4-demethoxy-7-O-(2,6-dideoxy-2-fluoro-a-L-talopyranosyl)adriamycinone]							>348	>427	96	80	77	complete cure of the leukemia in the mice (Leukemia L-1210 cells [2]; intraperitoneally, 0.15 mg/kg/day): three mice were completely cured among the treated four mice
COc1cccc2c1C(=O)c1c(O)c3c(c(O)c1C2=O)C[C@@](O)(C(=O)CO)C[C@@H]3O[C@@H]1O[C@@H](C)[C@@H](O)[C@@H](O)[C@H]1F [7-0-(2,6-Dideoxy-2-fluoro-α-L-talopyranosyl) adriamycinone, reference compound]	127	182	185	275	>350	>750	182	185	275	>350	>750	% Increase in life-span (T/C, %) (Leukemia L-1210 cells [2]; Dose 0.15 mg/kg/day): 127%
COc1cccc2c1C(=O)c1c(O)c3c(c(O)c1C2=O)C[C@@](O)(C(C)=O)C[C@@H]3O[C@H]1C[C@H](N)[C@H](O)[C@H](C)O1 [Daunomycin, reference compound]	130	133	166	193	151	117	133	166	193	151	117	% Increase in life-span (T/C, %) (Leukemia L-1210 cells [2]; Dose 0.15 mg/kg/day): 130%
CC(=O)[C@]1(O)Cc2c(O)c3c(c(O)c2[C@@H](O[C@@H]2O[C@@H](C)[C@H](O)[C@@H](O)[C@H]2F)C1)C(=O)c1ccccc1C3=O [Example 2, 4-demethoxy-7-O-(2,6-dideoxy-2-fluoro-α-L-mannopyranosyl)daunomycinone]	113	163	309	> 686	134	73						
COc1cccc2c1C(=O)c1c(O)c3c(c(O)c1C2=O)C[C@@](O)(C(=O)CO)C[C@@H]3O[C@@H]1O[C@@H](C)[C@H](O)[C@@H](O)[C@H]1F [Example 3, 7-O-(2,6-dideoxy-2-fluoro-a-L-mannopyranosyl)adriamycinone]	157	>440	>363	>426	231	211						
C[C@@H]1O[C@@H](O[C@H]2C[C@](O)(C(=O)COC(=O)CCCC(=O)O)Cc3c(O)c4c(c(O)c32)C(=O)c2ccccc2C4=O)[C@H](F)[C@H](O)[C@@H]1O [Example 16, 4-demethoxy-7-O-(2,6-dideoxy-2-fluoro-α-L-talopyranosyl)adriamycinone 14-0-hemiglutarate]												solubility [3, 4]: 10 mg/mL (≈ 15.5 mM); solubility in the phosphate buffer solution (in words) [3]: soluble
COc1cccc2c1C(=O)c1c(O)c3c(c(O)c1C2=O)C[C@@](O)(C(=O)COC(=O)CCCC(=O)O)C[C@@H]3O[C@@H]1O[C@@H](C)[C@H](O)[C@@H](O)[C@H]1F [Example 7, 7-0-(2,6-dideoxy-2-fluoro-a-L-. mannopyranosyl)adriamycinone 14-0-hemiglutarate]												solubility [3, 5]: 28 mg/mL (≈ 41.4 mM)
